From ChEMBL document CHEMBL2346569, “Synthesis and biological evaluation of pyridazine derivatives as novel HIV-1 NNRTIs” (Bioorg Med Chem, 2013)

How the values were obtained:
[1] = Cytotoxicity against mock-infected human MT4 cells assessed as cell viability after 5 days by MTT assay; assay type: cell-based
[2] = system: Human immunodeficiency virus 2; assay: Antiviral activity against HIV2 ROD infected in human MT4 cells assessed as protection against virus-induced cytopathicity after 5 days by MTT assay; assay type: functional, organism-based, ISOLATE ROD
[3] = Selectivity index, ratio of CC50 for mock-infected human MT4 cells to EC50 for wild type HIV1 3B
[4] = system: Human immunodeficiency virus 1; assay: Antiviral activity against wild type HIV1 3B infected in human MT4 cells assessed as protection against virus-induced cytopathicity after 5 days by MTT assay; assay type: functional, organism-based; conditions: Human immunodeficiency virus 1, 3B, MT4, 120 h
[5] = system: Human immunodeficiency virus 1; assay: Antiviral activity against HIV1 RES056 harboring reverse transcriptase K103N/Y181C double mutant infected in human MT4 cells assessed as protection against virus-induced cytopathicity after 5 days by MTT assay; assay type: functional, organism-based
[6] = system: Human immunodeficiency virus 1; assay: Antiviral activity against wild type HIV1 LAI infected in human MT4 cells assessed as protection against virus-induced cytopathicity after 5 days by MTT assay; assay type: functional, organism-based; conditions: Human immunodeficiency virus 1, LAI, MT4, 120 h
[7] = system: Human immunodeficiency virus 1; assay: Antiviral activity against HIV1 harboring reverse transcriptase L100I/K103N double mutant infected in human MT4 cells assessed as protection against virus-induced cytopathicity after 5 days by MTT assay; assay type: functional, organism-based; conditions: Human immunodeficiency virus 1, MT4, 120 h
[8] = system: Human immunodeficiency virus 1; assay: Antiviral activity against HIV1 harboring reverse transcriptase K103N/Y181C double mutant infected in human MT4 cells assessed as protection against virus-induced cytopathicity after 5 days by MTT assay; assay type: functional, organism-based; conditions: Human immunodeficiency virus 1, MT4, 120 h
[9] = target: Human immunodeficiency virus type 1 reverse transcriptase (Human immunodeficiency virus 1, UniProt Q72547); assay: Inhibition of HIV 1 reverse transcriptase assessed as incorporation of biotin-dUTP into poly rA.dT by ELISA

SMILES | CC50 at 120 h [1] [nM] | EC50 ([2]; mt4) | selectivity ratio ([3]; mock-infected MT4 cells) | EC50 [4] [nM] | EC50 ([5]; mt4) | EC50 [6] [nM] | EC50 [7] [nM] | EC50 [8] [nM] | EC50 ([2]; Human immunodeficiency virus 2, ISOLATE ROD, MT4, 120 h, read-out: EC50) [nM] | selectivity ratio ([3]; mt4) | EC50 ([5]; Human immunodeficiency virus 1, RES056, MT4, 120 h, read-out: EC50) [nM] | IC50 [9] [nM]
N#Cc1ccc(Nc2cc(Oc3c(Cl)cc(Cl)cc3Cl)c(Cl)nn2)cc1 | 18600 | Not Active | 120 | 155 | Not Active |  |  |  |  |  |  | 
Cc1cc(C)c(Oc2cc(Nc3ccc(C#N)cc3)nn(C)c2=O)c(C)c1 | 143000 | Not Active | 123 | 1160 | Not Active |  |  |  |  |  |  | 
Cc1cc(C)c(Oc2cc(Nc3ccc(C#N)cc3)nnc2Cl)c(C)c1 | 36300 | Not Active | 461 | 79 | Not Active |  |  |  |  |  |  | 
Cc1cc(Br)cc(C)c1Oc1cc(Nc2ccc(C#N)cc2)n[nH]c1=O | 19500 | Not Active | 16 | 1190 | Not Active |  |  |  |  |  |  | 
Cc1cc(C#N)cc(C)c1Oc1cc(Nc2ccc(C#N)cc2)nnc1Cl | 53200 | Not Active | 369 | 144 | Not Active |  |  |  |  |  |  | 
Cc1cc(C)c(Oc2cc(Nc3ccc([N+](=O)[O-])cc3)nnc2Cl)c(C)c1 | 940 | Not Active | < 1 | > 940 | Not Active |  |  |  |  |  |  | 
Cc1cc(C)c(Oc2cc(Nc3ccc([N+](=O)[O-])cc3)n[nH]c2=O)c(C)c1 | 37100 | Not Active | 7 | 5080 | Not Active |  |  |  |  |  |  | 
Cc1ccc(Nc2cc(Oc3c(C)cc(C)cc3C)c(=O)[nH]n2)cc1 | 185000 | Not Active | 119 | 1550 | Not Active |  |  |  |  |  |  | 
Cc1cccc(C)c1Oc1cc(Nc2ccc(C#N)cc2)n[nH]c1=O | 205000 | Not Active | 108 | 1900 | Not Active |  |  |  |  |  |  | 
Cc1cc(C#N)cc(C)c1Oc1cc(Nc2ccc(C#N)cc2)n[nH]c1=O | 272000 | Not Active | 96 | 2830 | Not Active |  |  |  |  |  |  | 
N#Cc1ccc(Nc2cc(Oc3c(Br)cc(Br)cc3Br)c(Cl)nn2)cc1 | 22300 | Not Active | 124 | 180 | Not Active |  |  |  |  |  |  | 
COc1cccc(OC)c1Oc1cc(Nc2ccc(C#N)cc2)nnc1Cl | 2900 | Not Active | < 1 | > 2900 | Not Active |  |  |  |  |  |  | 
N#Cc1ccc(Nc2cc(Oc3c(Br)cc(Br)cc3Br)c(=O)[nH]n2)cc1 | 139000 | Not Active | 221 | 630 | Not Active |  |  |  |  |  |  | 
Cc1ccc(Nc2cc(Oc3c(C)cc(C)cc3C)c(Cl)nn2)cc1 | 244000 | Not Active | 1210 | 201 | Not Active |  |  |  |  |  |  | 
COc1ccc(Nc2cc(Oc3c(C)cc(C)cc3C)c(=O)[nH]n2)cc1 | 5880 | Not Active | 4 | 1590 | Not Active |  |  |  |  |  |  | 
Cc1cc(C)c(Oc2cc(Nc3cccc(Cl)c3)n[nH]c2=O)c(C)c1 | 119000 | Not Active | 8 | 14400 | Not Active |  |  |  |  |  |  | 

SMILES | CC50 at 120 h [1] [nM] | EC50 ([2]; mt4) | selectivity ratio ([3]; mock-infected MT4 cells) | EC50 [4] [nM] | EC50 ([5]; mt4) | EC50 [6] [nM] | EC50 [7] [nM] | EC50 [8] [nM] | EC50 ([2]; Human immunodeficiency virus 2, ISOLATE ROD, MT4, 120 h, read-out: EC50) [nM] | selectivity ratio ([3]; mt4) | EC50 ([5]; Human immunodeficiency virus 1, RES056, MT4, 120 h, read-out: EC50) [nM] | IC50 [9] [nM]
Cc1cc(C)c(Oc2cc(Nc3ccc(Cl)cc3)nnc2Cl)c(C)c1 | 210000 | Not Active | 1510 | 139 | Not Active |  |  |  |  |  |  | 
Cc1cccc(C)c1Oc1cc(Nc2ccc(C#N)cc2)nnc1Cl | 290000 | Not Active | 537 | 540 | Not Active |  |  |  |  |  |  | 
CC(C)Nc1cccnc1N1CCN(C(=O)c2cc3cc(NS(C)(=O)=O)ccc3[nH]2)CC1 [DELAVIRDINE] | > 43400 | Not Active | > 1030 | 42 | Not Active |  |  |  |  |  |  | 
Cc1cc(C#N)cc(C)c1Oc1ccc(=O)n(Nc2ccc(C#N)cc2)n1 |  |  |  |  |  | 1750 |  |  |  |  |  | 
Cc1cc(C)c(Oc2cc(Nc3ccc(C#N)cc3)n[nH]c2=O)c(C)c1 | 47000 | Not Active | 180 | 260 | Not Active |  |  |  |  |  |  | 
N#Cc1ccc(Nc2cc(Oc3c(Cl)cc(Cl)cc3Cl)c(=O)[nH]n2)cc1 | 35000 | Not Active |  | ≥ 9200 | Not Active |  |  |  |  |  |  | 
Cc1ccnc2c1NC(=O)c1cccnc1N2C1CC1 [NEVIRAPINE] | > 14900 | Not Active |  |  | Not Active |  |  |  |  |  |  | 
Cc1cc(Br)c(Oc2cc(Nc3ccc(C#N)cc3)n[nH]c2=O)c(Br)c1 | 154000 | Not Active | 733 | 210 | Not Active |  |  |  |  |  |  | 
Cc1cc(C)c(Oc2cc(Nc3ccc(Cl)cc3)n[nH]c2=O)c(C)c1 | 5980 | Not Active | 8 | 780 | Not Active |  |  |  |  |  |  | 
Cc1cc(C#N)cc(C)c1Oc1nc(Nc2ccc(C#N)cc2)c(=O)n(C)c1C |  |  |  |  |  | 6 | 158 | 61 |  |  |  | 
Cc1cc(Br)cc(C)c1Oc1cc(Nc2ccc(C#N)cc2)nnc1Cl | 84100 | Not Active | 210 | 400 | Not Active |  |  |  |  |  |  | 
O=C1Nc2ccc(Cl)cc2[C@@](C#CC2CC2)(C(F)(F)F)O1 [EFAVIRENZ] | > 2000 |  |  | 7 |  |  |  |  | 20 | > 286 | 590 | 
Cc1cc(C)c(Oc2cc(N(C)c3ccc(C#N)cc3)nn(C)c2=O)c(C)c1 | ≥ 246000 | Not Active | ≥ 73 | 3360 | Not Active |  |  |  |  |  |  | 
N#Cc1ccc(Nc2cc(Oc3c(Cl)cccc3Cl)c(Cl)nn2)cc1 | 93100 | Not Active | 423 | 220 | Not Active |  |  |  |  |  |  | 
Cc1cc(C#N)cc(C)c1Oc1nc(Nc2ccc(C#N)cc2)nc(N)c1Br [ETRAVIRINE] | > 4600 | Not Active |  |  |  |  |  |  |  |  |  | 
Cc1cc(Br)c(Oc2cc(Nc3ccc(C#N)cc3)nnc2Cl)c(Br)c1 | 19200 | Not Active | 565 | 34 | Not Active |  |  |  |  |  |  | 3180
